These results are taken from US20110009362A1, “SOLUBILITY-ENHANCED FORMS OF APREPITANT AND PHARMACEUTICAL COMPOSITIONS THEREOF” (DR. REDDY'S LABORATORIES LTD., priority 2008, published 2011).

The conditions of data set [1]: cited from earlier work.
Data set [2] is described as follows: Saturation solubility of aprepitant forms in water and aqueous HPβCD solutions. Type of data set: physicochemical. The settings on record: water, thermodynamic from solid, 1A: pH 7.0. The protocol: Crystalline Form I of aprepitant, amorphous aprepitant, or aprepitant coprecipitate was added to water and to aqueous HPβCD solutions of different concentrations, with stirring until the saturation solubility was reached. […] 1B—pH adjusted to 1.2 using hydrochloric acid. 1C—pH adjusted to 11 with 0.3% sodium bicarbonate solution. Complexes with HPβCD are prepared by adding aprepitant to aqueous solutions of HPβCD and sonicating the solutions to dissolve aprepitant, until saturation is attained.

A short description of data set [3]: Particle size analysis, Malvern Mastersizer. Type of data set: physicochemical. From the text: The particle size distribution of a material is generally described in terms of D10, D50, D90, and D[4,3], used routinely to describe the particle sizes or size distributions. It is expressed as volume or weight or surface percentages. Dx as used herein is defined as the size of particles where x percent of the particles have sizes less than the value given. D[4,3] is the volume mean diameter of the particles. D90 for example means that 90% of the particles are below the specified particle size. Particle sizes or particle size distributions of the pharmaceutical compositions of aprepitant of the present invention are determined using any techniques that are known to the person skilled in the art including but not limited to sieve analysis, size analysis by laser light scattering such as using a Malvern particle size analyzer (Malvern Instruments Ltd., Malvern, Worcestershire, United Kingdom) and the like. Pharmaceutical compositions of aprepitant of the present invention are generally fine, uniform and free of agglomerates.
As used herein, the term “mean particle size” refers to the distributions of aprepitant particles, including aprepitant co-precipitate particles, wherein about 50 percent of all particles measured have a particle size less than the defined mean particle size value and about 50 percent of all measurable particles measured have a particle size greater than the defined mean particle size value; this can be identified by the term “D50.” Similarly, a particle size distribution where 90 percent of the particles have sizes less than a specified size is referred to as “D90” and a distribution where 10 percent of particles have sizes less than a specified size is referred to as “D10.”
Particle size analysis was carried out using a Malvern Mastersizer.

Converted amounts (≈) assume the structure as drawn.

Turning to `C[C@@H](O[C@H]1OCCN(Cc2n[nH]c(=O)[nH]2)[C@H]1c1ccc(F)cc1)c1cc(C(F)(F)F)cc(C(F)(F)F)c1` [Aprepitant, 5-[[(2R,3S)-2-[(1R)-1-[3,5-bis(trifluoromethyl)phenyl]ethoxy]-3-(4-fluorophenyl)-4-morpholinyl]methyl]-1,2-dihydro-3H-1,2,4-triazol-3-one], the solubility in acetonitrile result in data set [1] (acetonitrile) is given as “slightly soluble”. The solubility in ethanol entry in data set [1] (ethanol) is reported as “sparingly soluble”. In data set [1] (isopropyl alcohol), the “solubility in isopropyl alcohol” value was “sparingly soluble”. Also, the solubility in water entry in data set [1] (water) is reported as “practically insoluble”.
Broadly, the solubility is the concentration that dissolves in the medium under given conditions. Higher therefore signals a readily soluble substance. Regarding `C[C@@H](O[C@H]1OCCN(Cc2n[nH]c(=O)[nH]2)[C@H]1c1ccc(F)cc1)c1cc(C(F)(F)F)cc(C(F)(F)F)c1` [Crystalline aprepitant Form I], in data set [2], the solubility amounted to 0.5 µg/mL (≈ 0.936 µM). In data set [3] (D10), the “Particle Size D10” value is reported as 17.1 μm. Also, the “Particle Size D50” value in data set [3] (D50) is listed as 29.2 μm. The “Particle Size D90” value in data set [3] (D90) stood at 52.0 μm.
